# Test results as given in US20220107317A1, “COMPOSITIONS AND METHODS FOR DIAGNOSING AND TREATING CORONAVIRUS DISEASE 2019” (priority 2020, published 2022).
# Target: SARS-CoV-2 spike protein RBD (Severe acute respiratory syndrome coronavirus 2, UniProt P0DTC2)
# Conditions: spike protein RBD and dimer of spike protein RBD, FIG. 4
sequence,measurement,value
DLSGFVRPDPVIISSPLSTFFSDAGYKSLLKITMTQSTVPLNLIRVHLMVAVEG HLFQKSFQASPNLAYTFIWDKTDAYGQRVYGLSDAVVSVGFEYETCPSLILW EKRTALLQGFELD [T2 peptide],binding in Western blot,binding between T2 peptide to both spike protein RBD and the dimer of spike protein RBD
